Columns and labels:
Cathepsin K = molecular target: T1, Cathepsin K (Homo sapiens, UniProt P43235); test: Inhibition of cathepsin K
T1 sequence (P43235 whole entry): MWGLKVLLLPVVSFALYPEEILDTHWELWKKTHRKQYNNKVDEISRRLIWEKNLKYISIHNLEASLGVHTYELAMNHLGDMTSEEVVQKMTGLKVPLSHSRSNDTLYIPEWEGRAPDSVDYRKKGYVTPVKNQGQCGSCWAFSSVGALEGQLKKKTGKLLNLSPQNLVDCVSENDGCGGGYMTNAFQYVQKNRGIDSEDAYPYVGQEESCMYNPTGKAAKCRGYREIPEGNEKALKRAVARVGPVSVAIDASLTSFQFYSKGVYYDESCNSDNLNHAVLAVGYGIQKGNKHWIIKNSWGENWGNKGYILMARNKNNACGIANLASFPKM

Cathepsin B = Cathepsin B (Homo sapiens, UniProt P07858); test: Inhibition of cathepsin B
Procathepsin L = Procathepsin L (Homo sapiens, UniProt P07711); test: Inhibition of cathepsin L
Sequence of Procathepsin L (P07711 whole entry): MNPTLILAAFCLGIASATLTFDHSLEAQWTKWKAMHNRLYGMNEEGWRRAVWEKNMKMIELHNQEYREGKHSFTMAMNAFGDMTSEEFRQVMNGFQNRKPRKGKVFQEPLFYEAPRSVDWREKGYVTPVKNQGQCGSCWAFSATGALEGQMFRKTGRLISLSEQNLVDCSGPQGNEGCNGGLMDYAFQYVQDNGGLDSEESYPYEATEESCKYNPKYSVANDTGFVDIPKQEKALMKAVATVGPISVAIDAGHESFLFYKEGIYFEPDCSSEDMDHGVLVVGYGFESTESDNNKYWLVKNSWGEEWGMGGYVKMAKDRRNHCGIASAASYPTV

Cathepsin S = Cathepsin S (Homo sapiens, UniProt P25774); test: Inhibition of cathepsin S
Sequence of Cathepsin S (P25774 whole entry): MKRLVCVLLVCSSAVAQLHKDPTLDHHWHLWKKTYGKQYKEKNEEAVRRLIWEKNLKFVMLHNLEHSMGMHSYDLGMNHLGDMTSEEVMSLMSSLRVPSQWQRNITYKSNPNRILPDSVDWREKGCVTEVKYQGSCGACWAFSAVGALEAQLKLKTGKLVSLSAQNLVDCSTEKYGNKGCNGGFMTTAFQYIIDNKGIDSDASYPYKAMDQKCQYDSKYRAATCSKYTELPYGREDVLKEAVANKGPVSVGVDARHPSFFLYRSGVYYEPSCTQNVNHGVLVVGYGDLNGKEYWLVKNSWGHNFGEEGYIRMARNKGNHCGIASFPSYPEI

Cathepsin L2 = molecular target: T2, Cathepsin L2 (Homo sapiens, UniProt O60911); test: Inhibition of cathepsin L2
T2 sequence (O60911 whole entry): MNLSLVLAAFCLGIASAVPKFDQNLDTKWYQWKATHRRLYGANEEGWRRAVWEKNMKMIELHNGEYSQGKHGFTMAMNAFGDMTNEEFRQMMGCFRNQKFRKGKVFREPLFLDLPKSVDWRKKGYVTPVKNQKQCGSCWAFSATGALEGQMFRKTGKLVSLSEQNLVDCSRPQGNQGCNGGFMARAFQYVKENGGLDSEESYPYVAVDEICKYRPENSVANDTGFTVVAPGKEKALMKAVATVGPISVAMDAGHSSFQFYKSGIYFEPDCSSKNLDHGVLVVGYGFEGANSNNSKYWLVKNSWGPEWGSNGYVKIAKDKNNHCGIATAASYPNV

Compound | IC50 (Cathepsin K) [nM] | IC50 (Cathepsin B) [nM] | IC50 (Procathepsin L) [nM] | IC50 (Cathepsin S) [nM] | IC50 (Cathepsin L2) [nM]
CCc1cc(C(=O)N[C@@H](Cc2cccc(Cl)c2)C(=O)NCC#N)n(C)n1 | 5010 | 7940 | 63.1 | 794 | 501
N#CCNC(=O)[C@H](Cc1cccc(Cl)c1)NC(=O)c1cccc2ccccc12 | > 10000 | 10000 | 251 | 3160 | 3980
Cc1nc(C(=O)N[C@@H](Cc2cccc(Cl)c2)C(=O)NCC#N)c(C)o1 | 10000 | > 10000 | 631 | 794 | 2510
Cc1ccc(C)c(C(=O)N[C@@H](Cc2cccc(Cl)c2)C(=O)NCC#N)c1 | 6310 | 5010 | 79.4 | 1260 | 1580
N#CCNC(=O)[C@H](Cc1cccc(Cl)c1)NC(=O)C1CCCCC1 | > 10000 | > 10000 | 1260 | 2510 | 6310
Cc1nc(C)c(C(=O)N[C@@H](Cc2cccc(Cl)c2)C(=O)NCC#N)s1 | 1260 | 10000 | 398 | 200 | 251
Cc1ccc(C(=O)N[C@@H](Cc2cccc(Cl)c2)C(=O)NCC#N)cc1 | 1260 | 2510 | 251 | 631 | 1000
Cc1cc(C(=O)N[C@@H](Cc2cccc(Cl)c2)C(=O)NCC#N)c(C)s1 | 5010 | 2000 | 79.4 | 794 | 501
Cc1cccc(C(=O)N[C@@H](Cc2cccc(Cl)c2)C(=O)NCC#N)c1C | > 10000 | > 10000 | 316 | 2000 | 3980
N#CCNC(=O)[C@H](Cc1cccc(Cl)c1)NC(=O)c1cccc(Cl)c1 | 6310 | 3980 | 79.4 | 200 | 200
N#CCNC(=O)[C@H](Cc1cccc(Cl)c1)NC(=O)c1cccc2c1CCCC2 | > 10000 | > 10000 | 398 | > 10000 | > 10000
Cc1cc(C)cc(C(=O)N[C@@H](Cc2cccc(Cl)c2)C(=O)NCC#N)c1 | > 10000 | 7940 | 50.1 | 316 | 200
N#CCNC(=O)[C@H](Cc1cccc(Cl)c1)NC(=O)C1CCCCCC1 | 5010 | > 10000 | 316 | 2510 | 6310

The remaining lines, values ahead:

IC50 (Cathepsin K) [nM] | IC50 (Cathepsin B) [nM] | IC50 (Procathepsin L) [nM] | IC50 (Cathepsin S) [nM] | IC50 (Cathepsin L2) [nM] | Compound
2510 | > 10000 | 1260 | 1260 | 1260 | Cc1nn(C)cc1C(=O)N[C@@H](Cc1cccc(Cl)c1)C(=O)NCC#N
6310 | > 10000 | 501 | 794 | 1260 | Cc1cc(C(=O)N[C@@H](Cc2cccc(Cl)c2)C(=O)NCC#N)n(C)n1
> 10000 | > 10000 | 100 | 3160 | 3160 | N#CCNC(=O)[C@H](Cc1cccc(Cl)c1)NC(=O)c1ccnc2ccccc12
6310 | 5010 | 251 | 398 | 794 | Cc1cccc(C(=O)N[C@@H](Cc2cccc(Cl)c2)C(=O)NCC#N)c1
> 10000 | > 10000 | 501 | 2000 | 398 | N#CCNC(=O)[C@H](Cc1cccc(Cl)c1)NC(=O)C1=CCCCC1
2000 | 5010 | 79.4 | 794 | 501 | CC(C)c1cc(C(=O)N[C@@H](Cc2cccc(Cl)c2)C(=O)NCC#N)n(C)n1
> 10000 | > 10000 | 20 | 1000 | 1000 | Cc1cc(C(=O)N[C@@H](Cc2cccc(Cl)c2)C(=O)NCC#N)c2cc(C)ccc2c1
5010 | > 10000 | 794 | 1580 | 5010 | Cc1ccccc1C(=O)N[C@@H](Cc1cccc(Cl)c1)C(=O)NCC#N
